This note sets out measurements from publication PMC8042770, “Odorant Receptors for Detecting Flowering Plant Cues Are Functionally Conserved across Moths and Butterflies” (Molecular Biology and Evolution, 2020).

Usually EC50 stands for the concentration at which the effect is half-maximal.

Format in all cases: cell-based
The target in one assay is HarmOR67 (Helicoverpa armigera, UniProt A0A7T3KAH1). Description: Xenopus oocyte two-electrode voltage clamp, HarmOR67 + Orco. To be noted: dose response in oocytes, unit M. The procedure: (§1) In order to expand our analysis on the response properties of HarmORs, we conducted dose–response analyses for the 28 functional HarmORs. […] Six HarmORs (OR3, 22, 48, 50, 56, and 66) could not be activated by any ligand at 10^−5 M. For the other 22 HarmORs, dose–response curves were generated and EC50 values of their major ligands were calculated (fig. 2A and supplementary table S2, Supplementary Material online). The HarmOR repertoire was highly efficient in terpene detection, since the lowest EC50 values were obtained for such compounds. Many of these terpenes have been proposed to be defensive chemicals of plants. […] DMNT is also one of the oviposition deterring compounds found in larval frass of some Lepidoptera species such as S. littoralis ([Anderson et al. 1993]).
(§2) Functional characterization of individual ORs was performed by heterologous expression in Xenopus oocytes combined with a two-electrode voltage-clamp system ([Wang et al. 2010]). Briefly, the full-length gene of each OR and Orco were subcloned into the eukaryotic expression vector pT7TS. cRNAs were generated from linearized expression vectors using the mMESSAGE mMACHINE T7 kit (Ambion, Austin, TX). Then, the cRNA mixture of ORx and Orco (27.6 ng each) was injected (Nanoliter 2010, WPI Inc., Sarasota, FL) into oocytes (stage V–VII). The respective Orcos of different species were used for functional studies of OR42 orthologs except for the four butterfly species (V. tameamea, P. xuthus, D. plexippus, and P. rapae), in which we used the Orco from P. xuthus. After incubation in nutrient solution at 18 °C for 3–5 days, the response profile of each oocyte to multiple plant odorants was recorded via a two-electrode voltage clamp (OC-725C oocyte clamp, Warner Instruments, Hamden, CT) at a holding potential of −80 mV. Data were acquired by using a Digidata 1440 A and were analyzed by pCLAMP 10.2 software (Axon Instruments Inc., Union City, CA). […]

Another assay addresses HarmOR31 (Helicoverpa armigera, UniProt A0A7T3N2E9). The assay can be described thus: Xenopus oocyte two-electrode voltage clamp, HarmOR31 + Orco. Particulars: HarmOR31; dose response in oocytes; unit M; read-out: EC50. The text has this: In order to expand our analysis on the response properties of HarmORs, we conducted dose–response analyses for the 28 functional HarmORs. […] Many of these terpenes have been proposed to be defensive chemicals of plants.
Briefly, the full-length gene of each OR and Orco were subcloned into the eukaryotic expression vector pT7TS. cRNAs were generated from linearized expression vectors using the mMESSAGE mMACHINE T7 kit (Ambion, Austin, TX). […] The respective Orcos of different species were used for functional studies of OR42 orthologs except for the four butterfly species (V. tameamea, P. xuthus, D. plexippus, and P. rapae), in which we used the Orco from P. xuthus.
(§3) Stock solutions of each odorant were prepared at 1 M using DMSO as a solvent, and each odorant was diluted in 1× Ringer’s solution to the indicated concentrations for electrophysiological recording. For functional screening of each HarmOR, a panel of 67 odorants belonging to three types of chemical classes: terpenes, aromatics, and aliphatics (short-chain fatty acid) were used (supplementary table S1, Supplementary Material online). For functional studies of OR42 orthologs from different species, six odorants including PAA, benzaldehyde, (E)-2-hexen-1-al, cinnamaldehyde, 2-phenylethanol, and heptanal were used.
(In general: Two-electrode voltage clamp holds a large cell at a set potential and records current.)

The target in the next assay is T1, HarmOR19 (Helicoverpa armigera, UniProt A0A7T3N0J7).
T1 sequence (A0A7T3N0J7 1-402): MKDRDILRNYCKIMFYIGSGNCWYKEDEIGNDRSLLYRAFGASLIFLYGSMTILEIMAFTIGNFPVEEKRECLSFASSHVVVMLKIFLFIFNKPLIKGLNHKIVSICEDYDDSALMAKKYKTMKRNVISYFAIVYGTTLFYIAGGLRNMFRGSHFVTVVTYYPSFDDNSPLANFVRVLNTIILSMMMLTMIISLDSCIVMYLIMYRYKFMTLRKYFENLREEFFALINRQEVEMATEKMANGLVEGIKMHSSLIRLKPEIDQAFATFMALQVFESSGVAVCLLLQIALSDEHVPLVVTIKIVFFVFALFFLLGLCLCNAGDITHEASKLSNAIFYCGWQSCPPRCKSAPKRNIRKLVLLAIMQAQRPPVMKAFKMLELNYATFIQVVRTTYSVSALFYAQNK
Description: Xenopus oocyte two-electrode voltage clamp, HarmOR19 + Orco. Particulars: dose response in oocytes, unit M. The procedure:
as §1, §2

The next assay has as its target HarmOR10 (Helicoverpa armigera, UniProt A0A0G2RLT6). Description: Xenopus oocyte two-electrode voltage clamp, HarmOR10 + Orco. As for the experimental part: as §1
Functional characterization of individual ORs was performed by heterologous expression in Xenopus oocytes combined with a two-electrode voltage-clamp system ([Wang et al. 2010]). […] After incubation in nutrient solution at 18 °C for 3–5 days, the response profile of each oocyte to multiple plant odorants was recorded via a two-electrode voltage clamp (OC-725C oocyte clamp, Warner Instruments, Hamden, CT) at a holding potential of −80 mV. Data were acquired by using a Digidata 1440 A and were analyzed by pCLAMP 10.2 software (Axon Instruments Inc., Union City, CA). […]

The target of a further assay is HarmOR59 (Helicoverpa armigera, UniProt A0A7T3KAU6). Description: Xenopus oocyte two-electrode voltage clamp, HarmOR59 + Orco. As for the experimental part:
as §1
(§4) Functional characterization of individual ORs was performed by heterologous expression in Xenopus oocytes combined with a two-electrode voltage-clamp system ([Wang et al. 2010]). Briefly, the full-length gene of each OR and Orco were subcloned into the eukaryotic expression vector pT7TS. cRNAs were generated from linearized expression vectors using the mMESSAGE mMACHINE T7 kit (Ambion, Austin, TX). Then, the cRNA mixture of ORx and Orco (27.6 ng each) was injected (Nanoliter 2010, WPI Inc., Sarasota, FL) into oocytes (stage V–VII). The respective Orcos of different species were used for functional studies of OR42 orthologs except for the four butterfly species (V. tameamea, P. xuthus, D. plexippus, and P. rapae), in which we used the Orco from P. xuthus. After incubation in nutrient solution at 18 °C for 3–5 days, the response profile of each oocyte to multiple plant odorants was recorded via a two-electrode voltage clamp (OC-725C oocyte clamp, Warner Instruments, Hamden, CT) at a holding potential of −80 mV. Data were acquired by using a Digidata 1440 A and were analyzed by pCLAMP 10.2 software (Axon Instruments Inc., Union City, CA).
as §3

The next assay addresses T2, HarmOR27 (Helicoverpa armigera, UniProt A0A7T3KAG1).
T2 sequence (A0A7T3KAG1 1-426): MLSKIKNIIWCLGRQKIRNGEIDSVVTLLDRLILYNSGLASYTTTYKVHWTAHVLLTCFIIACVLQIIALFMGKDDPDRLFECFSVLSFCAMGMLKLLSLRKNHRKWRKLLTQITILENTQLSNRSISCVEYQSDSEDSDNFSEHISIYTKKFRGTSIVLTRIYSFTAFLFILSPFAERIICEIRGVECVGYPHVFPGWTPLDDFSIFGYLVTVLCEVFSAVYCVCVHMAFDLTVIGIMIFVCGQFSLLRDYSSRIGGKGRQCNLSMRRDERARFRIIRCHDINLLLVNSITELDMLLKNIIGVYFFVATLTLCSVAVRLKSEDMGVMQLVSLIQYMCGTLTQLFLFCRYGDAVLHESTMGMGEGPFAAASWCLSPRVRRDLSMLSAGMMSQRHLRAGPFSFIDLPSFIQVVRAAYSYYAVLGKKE
Description: Xenopus oocyte two-electrode voltage clamp, HarmOR27 + Orco. The procedure:
as §1, §4, §3

HarmOR67, sequence (A0A7T3KAH1 entry or part of it): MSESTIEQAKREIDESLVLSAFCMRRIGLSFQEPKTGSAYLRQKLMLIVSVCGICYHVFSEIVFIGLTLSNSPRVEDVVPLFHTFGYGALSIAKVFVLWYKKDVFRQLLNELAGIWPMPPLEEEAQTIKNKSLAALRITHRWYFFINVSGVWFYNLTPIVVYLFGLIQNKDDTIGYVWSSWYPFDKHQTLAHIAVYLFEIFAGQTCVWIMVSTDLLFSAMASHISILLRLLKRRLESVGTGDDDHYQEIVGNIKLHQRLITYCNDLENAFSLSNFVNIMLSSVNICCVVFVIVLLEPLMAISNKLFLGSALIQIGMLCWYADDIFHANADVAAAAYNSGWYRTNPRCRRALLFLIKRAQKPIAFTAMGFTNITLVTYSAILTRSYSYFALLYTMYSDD
HarmOR10, sequence (A0A0G2RLT6 1-390): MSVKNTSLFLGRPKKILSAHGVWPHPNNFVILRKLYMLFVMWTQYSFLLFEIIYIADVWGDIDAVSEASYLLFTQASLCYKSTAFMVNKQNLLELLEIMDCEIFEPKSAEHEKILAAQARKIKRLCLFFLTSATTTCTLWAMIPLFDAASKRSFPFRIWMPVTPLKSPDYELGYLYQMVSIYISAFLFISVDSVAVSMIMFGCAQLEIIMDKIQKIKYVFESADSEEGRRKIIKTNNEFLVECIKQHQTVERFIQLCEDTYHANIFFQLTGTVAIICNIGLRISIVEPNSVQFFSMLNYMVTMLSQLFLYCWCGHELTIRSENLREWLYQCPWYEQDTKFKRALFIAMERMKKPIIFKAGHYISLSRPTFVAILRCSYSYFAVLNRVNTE
HarmOR31, sequence (A0A7T3N2E9 entry or part of it): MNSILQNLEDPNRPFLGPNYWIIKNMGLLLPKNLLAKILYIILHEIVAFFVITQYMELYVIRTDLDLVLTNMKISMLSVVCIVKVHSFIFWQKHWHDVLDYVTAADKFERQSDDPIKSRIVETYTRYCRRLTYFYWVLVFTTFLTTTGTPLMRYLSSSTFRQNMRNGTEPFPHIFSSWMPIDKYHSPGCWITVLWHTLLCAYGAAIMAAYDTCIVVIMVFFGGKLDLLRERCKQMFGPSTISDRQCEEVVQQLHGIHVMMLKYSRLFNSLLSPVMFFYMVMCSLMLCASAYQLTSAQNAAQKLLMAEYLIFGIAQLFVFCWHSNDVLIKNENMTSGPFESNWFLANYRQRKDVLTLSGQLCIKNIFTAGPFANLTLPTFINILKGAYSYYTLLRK
HarmOR59, sequence (A0A7T3KAU6 entry or part of it): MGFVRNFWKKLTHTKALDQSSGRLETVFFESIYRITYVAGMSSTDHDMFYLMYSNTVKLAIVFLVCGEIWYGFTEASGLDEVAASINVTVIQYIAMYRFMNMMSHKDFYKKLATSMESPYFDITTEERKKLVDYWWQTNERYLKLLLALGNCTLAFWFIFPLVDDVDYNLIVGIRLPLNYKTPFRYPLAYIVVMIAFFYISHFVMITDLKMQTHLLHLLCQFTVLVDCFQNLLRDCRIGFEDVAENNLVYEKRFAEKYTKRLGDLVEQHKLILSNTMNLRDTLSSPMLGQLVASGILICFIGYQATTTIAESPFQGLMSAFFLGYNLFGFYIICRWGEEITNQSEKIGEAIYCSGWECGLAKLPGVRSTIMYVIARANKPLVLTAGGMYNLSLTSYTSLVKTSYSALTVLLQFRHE

In the case of `CCCCCCCO` [1-Heptanol], the 50% effective concentration (EC50) on HarmOR67 came out at 218 µM.
As to `CCCCCCCCO` [1-Octanol], the EC50 at HarmOR31 was 96.1 µM; on HarmOR67, 33.1 µM.
With `CCc1ccc(C(C)=O)cc1` [4'-Ethylacetophenone], on HarmOR19, the EC50 came to 16.7 µM.
As to `O=Cc1ccccc1` [Benzaldehyde], the results for the EC50 on HarmOR10 and on HarmOR59 were 124 µM and 12 µM, respectively. The “ligand tuning of HarmOR10” value at HarmOR10 (67 odorants at 10^−4 M) is reported as “specific ligand”.
In the case of `CCCCOC(=O)c1ccccc1O` [Butyl salicylate], the EC50 at HarmOR19 is 402 µM. For the same molecule, the figures for the “response of HarmOR27” value at HarmOR27 (odorant 10^−4 M) and at HarmOR27 (odorant 10^−5 M) were “maximal response” and “failed to evoke any current”, respectively.
